Results: ChEMBL document CHEMBL3244053, “Structural modification study of bis(substituted aminoalkylamino)anthraquinones. An evaluation of the relationship of the [2-[(2-hydroxyethyl)amino]ethyl]amino side chain with antineoplastic activity” (1979)
Calls of active or inactive are those of the source. No cut-off for these calls is given here.

Columns and labels:
[1] = test system: P388; assay: Antineoplastic activity against mouse P388 cells allografted in CDF1 mouse at 50 mg/kg qd for 9 days relative to control; format: functional
[2] = test system: P388; assay: Antineoplastic activity against mouse P388 cells allografted in CDF1 mouse at 100 mg/kg qd for 9 days relative to control; format: functional
[3] = test system: P388; assay: Antineoplastic activity against mouse P388 cells allografted in CDF1 mouse assessed as survival at 15 mg/kg qd for 9 days; format: functional, organism-based; parameters: dose 15 mg/kg
[4] = test system: P388; assay: Antineoplastic activity against mouse P388 cells allografted in CDF1 mouse at 30 mg/kg qd for 9 days relative to control; format: functional
[5] = test system: P388; assay: Antineoplastic activity against mouse P388 cells allografted in CDF1 mouse at 12.5 mg/kg qd for 9 days relative to control; format: functional
[6] = test system: P388; assay: Antineoplastic activity against mouse P388 cells allografted in CDF1 mouse at 15 mg/kg qd for 9 days relative to control; format: functional
[7] = test system: P388; assay: Antineoplastic activity against mouse P388 cells allografted in CDF1 mouse at 25 mg/kg qd for 9 days relative to control; format: functional
[8] = test system: P388; assay: Antineoplastic activity against mouse P388 cells allografted in CDF1 mouse assessed as survival at 12.5 mg/kg qd for 9 days; format: functional, organism-based; parameters: dose 12.5 mg/kg
[9] = test system: P388; assay: Antineoplastic activity against mouse P388 cells allografted in CDF1 mouse assessed as survival at 25 mg/kg qd for 9 days; format: functional, organism-based; parameters: dose 25 mg/kg
[10] = test system: P388; assay: Antineoplastic activity against mouse P388 cells allografted in CDF1 mouse assessed as survival at 30 mg/kg qd for 9 days; format: functional, organism-based; parameters: dose 30 mg/kg
[11] = test system: P388; assay: Antineoplastic activity against mouse P388 cells allografted in CDF1 mouse assessed as survival at 50 mg/kg qd for 9 days; format: functional, organism-based; parameters: dose 50 mg/kg
[12] = test system: P388; assay: Antineoplastic activity against mouse P388 cells allografted in CDF1 mouse assessed as survival at 100 mg/kg qd for 9 days; format: functional, organism-based; parameters: dose 100 mg/kg
[13] = test system: B16; assay: Antineoplastic activity against mouse B16 cells allografted in BDF1 mouse assessed as survival at 50 mg/kg qd for 9 days; format: functional, organism-based; parameters: dose 50 mg/kg
[14] = test system: B16; assay: Antineoplastic activity against mouse B16 cells allografted in BDF1 mouse assessed as survival at 100 mg/kg qd for 9 days; format: functional, organism-based; parameters: dose 100 mg/kg
[15] = test system: L1210; assay: Antineoplastic activity against mouse L1210 cells allografted in CDF1 mouse at 25 mg/kg qd for 9 days relative to control; format: functional
[16] = test system: B16; assay: Antineoplastic activity against mouse B16 cells allografted in BDF1 mouse at 50 mg/kg qd for 9 days relative to control; format: functional
[17] = test system: B16; assay: Antineoplastic activity against mouse B16 cells allografted in BDF1 mouse at 100 mg/kg qd for 9 days relative to control; format: functional
[18] = test system: L1210; assay: Antineoplastic activity against mouse L1210 cells allografted in CDF1 mouse assessed as survival at 25 mg/kg qd for 9 days; format: functional, organism-based; parameters: dose 25 mg/kg
[19] = test system: Colon 26; assay: Antineoplastic activity against mouse Colon 26 cells allografted in CDF1 mouse at 20 mg/kg qd for 9 days relative to control; format: functional
[20] = test system: B16; assay: Antineoplastic activity against mouse B16 cells allografted in BDF1 mouse at 80 mg/kg qd for 9 days relative to control; format: functional
[21] = test system: P388; assay: Antineoplastic activity against mouse P388 cells allografted in CDF1 mouse at 5 mg/kg qd for 9 days relative to control; format: functional
[22] = test system: P388; assay: Antineoplastic activity against mouse P388 cells allografted in CDF1 mouse assessed as survival at 40 mg/kg qd for 9 days; format: functional, organism-based; parameters: dose 40 mg/kg
[23] = test system: L1210; assay: Antineoplastic activity against mouse L1210 cells allografted in CDF1 mouse at 30 mg/kg qd for 9 days relative to control; format: functional
[24] = test system: L1210; assay: Antineoplastic activity against mouse L1210 cells allografted in CDF1 mouse at 15 mg/kg qd for 9 days relative to control; format: functional
[25] = test system: B16; assay: Antineoplastic activity against mouse B16 cells allografted in BDF1 mouse assessed as survival at 10 mg/kg qd for 9 days; format: functional, organism-based; parameters: dose 10 mg/kg
[26] = test system: P388; assay: Antineoplastic activity against mouse P388 cells allografted in CDF1 mouse assessed as survival at 10 mg/kg qd for 9 days; format: functional, organism-based; parameters: dose 10 mg/kg
[27] = test system: L1210; assay: Antineoplastic activity against mouse L1210 cells allografted in CDF1 mouse assessed as survival at 15 mg/kg qd for 9 days; format: functional, organism-based; parameters: dose 15 mg/kg
[28] = test system: P388; assay: Antineoplastic activity against mouse P388 cells allografted in CDF1 mouse assessed as survival at 5 mg/kg qd for 9 days; format: functional, organism-based; parameters: dose 5 mg/kg
[29] = test system: B16; assay: Antineoplastic activity against mouse B16 cells allografted in BDF1 mouse at 40 mg/kg qd for 9 days relative to control; format: functional
[30] = test system: B16; assay: Antineoplastic activity against mouse B16 cells allografted in BDF1 mouse at 20 mg/kg qd for 9 days relative to control; format: functional
[31] = test system: B16; assay: Antineoplastic activity against mouse B16 cells allografted in BDF1 mouse at 10 mg/kg qd for 9 days relative to control; format: functional
[32] = test system: P388; assay: Antineoplastic activity against mouse P388 cells allografted in CDF1 mouse at 40 mg/kg qd for 9 days relative to control; format: functional
[33] = test system: B16; assay: Antineoplastic activity against mouse B16 cells allografted in BDF1 mouse assessed as survival at 40 mg/kg qd for 9 days; format: functional, organism-based; parameters: dose 40 mg/kg
[34] = test system: B16; assay: Antineoplastic activity against mouse B16 cells allografted in BDF1 mouse assessed as survival at 80 mg/kg qd for 9 days; format: functional, organism-based; parameters: dose 80 mg/kg
[35] = test system: P388; assay: Antineoplastic activity against mouse P388 cells allografted in CDF1 mouse at 20 mg/kg qd for 9 days relative to control; format: functional
[36] = test system: Colon 26; assay: Antineoplastic activity against mouse Colon 26 cells allografted in CDF1 mouse assessed as survival at 20 mg/kg qd for 9 days; format: functional, organism-based; parameters: dose 20 mg/kg
[37] = test system: B16; assay: Antineoplastic activity against mouse B16 cells allografted in BDF1 mouse assessed as survival at 20 mg/kg qd for 9 days; format: functional, organism-based; parameters: dose 20 mg/kg
[38] = test system: P388; assay: Antineoplastic activity against mouse P388 cells allografted in CDF1 mouse assessed as survival at 20 mg/kg qd for 9 days; format: functional, organism-based; parameters: dose 20 mg/kg
[39] = test system: P388; assay: Antineoplastic activity against mouse P388 cells allografted in CDF1 mouse at 10 mg/kg qd for 9 days relative to control; format: functional
[40] = test system: Colon 26; assay: Antineoplastic activity against mouse Colon 26 cells allografted in CDF1 mouse at 10 mg/kg qd for 9 days relative to control; format: functional
[41] = test system: L1210; assay: Antineoplastic activity against mouse L1210 cells allografted in CDF1 mouse assessed as survival at 80 mg/kg qd for 9 days; format: functional, organism-based; parameters: dose 80 mg/kg
[42] = test system: Colon 26; assay: Antineoplastic activity against mouse Colon 26 cells allografted in CDF1 mouse assessed as survival at 40 mg/kg qd for 9 days; format: functional, organism-based; parameters: dose 40 mg/kg
[43] = test system: Colon 26; assay: Antineoplastic activity against mouse Colon 26 cells allografted in CDF1 mouse at 80 mg/kg qd for 9 days relative to control; format: functional
[44] = test system: L1210; assay: Antineoplastic activity against mouse L1210 cells allografted in CDF1 mouse at 80 mg/kg qd for 9 days relative to control; format: functional
[45] = test system: L1210; assay: Antineoplastic activity against mouse L1210 cells allografted in CDF1 mouse at 160 mg/kg qd for 9 days relative to control; format: functional
[46] = test system: Colon 26; assay: Antineoplastic activity against mouse Colon 26 cells allografted in CDF1 mouse at 40 mg/kg qd for 9 days relative to control; format: functional
[47] = test system: P388; assay: Antineoplastic activity against mouse P388 cells allografted in CDF1 mouse at 80 mg/kg qd for 9 days relative to control; format: functional
[48] = test system: B16; assay: Antineoplastic activity against mouse B16 cells allografted in BDF1 mouse at 200 mg/kg qd for 9 days relative to control; format: functional
[49] = test system: P388; assay: Antineoplastic activity against mouse P388 cells allografted in CDF1 mouse assessed as survival at 80 mg/kg qd for 9 days; format: functional, organism-based; parameters: dose 80 mg/kg
[50] = test system: L1210; assay: Antineoplastic activity against mouse L1210 cells allografted in CDF1 mouse at 40 mg/kg qd for 9 days relative to control; format: functional
[51] = test system: L1210; assay: Antineoplastic activity against mouse L1210 cells allografted in CDF1 mouse assessed as survival at 40 mg/kg qd for 9 days; format: functional, organism-based; parameters: dose 40 mg/kg
[52] = test system: L1210; assay: Antineoplastic activity against mouse L1210 cells allografted in CDF1 mouse assessed as survival at 160 mg/kg qd for 9 days; format: functional, organism-based; parameters: dose 160 mg/kg
[53] = test system: B16; assay: Antineoplastic activity against mouse B16 cells allografted in BDF1 mouse assessed as survival at 200 mg/kg qd for 9 days; format: functional, organism-based; parameters: dose 200 mg/kg
[54] = test system: Colon 26; assay: Antineoplastic activity against mouse Colon 26 cells allografted in CDF1 mouse assessed as survival at 80 mg/kg qd for 9 days; format: functional, organism-based; parameters: dose 80 mg/kg
[55] = test system: P388; assay: Antineoplastic activity against mouse P388 cells allografted in CDF1 mouse assessed as survival at 6.25 mg/kg qd for 9 days; format: functional, organism-based; parameters: dose 6.25 mg/kg
[56] = test system: P388; assay: Antineoplastic activity against mouse P388 cells allografted in CDF1 mouse at 6.25 mg/kg qd for 9 days relative to control; format: functional
[57] = test system: B16; assay: Antineoplastic activity against mouse B16 cells allografted in BDF1 mouse assessed as survival at 25 mg/kg qd for 9 days; format: functional, organism-based; parameters: dose 25 mg/kg
[58] = test system: B16; assay: Antineoplastic activity against mouse B16 cells allografted in BDF1 mouse at 25 mg/kg qd for 9 days relative to control; format: functional

Compound: O=C1C=C(NCCNCCO)C(=O)c2ccccc21
- T/C [1]: 103%
- T/C [2]: 93%

Compound: Cc1ccc(NCCNCCO)c2c(=O)c3ccccc3sc12
- Activity [3]: Active
- T/C [4]: 136%
- T/C [5]: 113%
- T/C [6]: 123%
- T/C [7]: 120%
- Activity [8]: Active
- Activity [9]: Active
- Activity [10]: Active

Compound: OCCNCCNc1ccnc2cc(Cl)ccc12
- Activity [11]: Active
- Activity [12]: Active
- T/C [1]: 116%
- Activity [13]: Active
- Activity [14]: Active
- T/C [15]: 111%
- T/C [16]: 99%
- T/C [17]: 110%
- Activity [18]: Active
- T/C [2]: 118%

Compound: CN(C)CCNc1ccc(NCCN(C)C)c2c1C(=O)c1ccccc1C2=O
- T/C [19]: 113%
- T/C [20]: 146%
- T/C [21]: 133%
- Activity [22]: Active
- T/C [23]: 150%
- T/C [24]: 117%
- Activity [25]: Active
- Activity [26]: Active
- Activity [27]: Active
- Activity [28]: Active
- T/C [29]: 148%
- T/C [30]: 142%
- T/C [31]: 125%
- T/C [32]: 202%
- Activity [33]: Active
- Activity [34]: Active
- T/C [35]: 163%
- Activity [36]: Active
- Activity [37]: Active
- Activity [38]: Active
- T/C [39]: 149%
- T/C [40]: 123%

Compound: CN(C)CCNc1ccc(O)c2c1C(=O)c1ccccc1C2=O
- Activity [41]: Active
- Activity [42]: Active
- T/C [19]: 104%
- T/C [4]: 100%
- T/C [43]: 115%
- Activity [13]: Active
- Activity [14]: Active
- T/C [44]: 122%
- T/C [45]: 139%
- Activity [22]: Active
- T/C [46]: 135%
- T/C [47]: 153%
- T/C [16]: 110%
- T/C [17]: 145%
- T/C [48]: 156%
- T/C [32]: 124%
- Activity [49]: Active
- T/C [50]: 107%
- Activity [51]: Active
- Activity [52]: Active
- Activity [53]: Active
- Activity [36]: Active
- Activity [10]: Active
- Activity [54]: Active

Compound: CCN(CC)CCC1=C(Cl)C(=O)c2ccccc2C1=O
- Activity [55]: Active
- T/C [5]: 101%
- T/C [56]: 96%
- Activity [8]: Active

Compound: CN(C)CCC1=CC(=O)c2ccccc2C1=O
- Activity [11]: Active
- T/C [1]: 100%
- T/C [2]: 97%

Compound: CN(C)CCOc1cccc2c1C(=O)c1ccccc1C2=O
- Activity [11]: Active
- Activity [12]: Active
- T/C [1]: 107%
- Activity [14]: Active
- T/C [16]: 97%
- T/C [17]: 104%
- Activity [57]: Active
- T/C [58]: 93%
- T/C [2]: 109%

Compound: CN(C)CCC1=C(Cl)C(=O)c2ccccc2C1=O
- Activity [55]: Active
- T/C [5]: 97%
- T/C [56]: 94%
- Activity [8]: Active
